Experimental data: patent US11820773B2, “Tricyclic compounds” (ALIGOS THERAPEUTICS, INC., priority 2020, dated 2023)

What follows are compounds tested on HBV (assay: HBV-DNA antiviral assay using HepG2.117 cells (intracellular HBV DNA by qPCR)). Details: HBV DNA inhibition, 3 days incubation, 2% DMSO.
Format: cell-based, genotype D HBV
Procedure, shortened: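 HepG2.117 cells (stable genotype D HBV, Tet-off) seeded without doxycycline, treated next day with 9-point 4-fold dilutions in 2% DMSO for 3 days at 37° C. Intracellular HBV DNA quantified by qPCR against a standard curve; viability by CellTiter-Glo ATP. EC50, EC90, CC50 from variable-slope dose-response fits versus DMSO control.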

For `CNc1onc2cc(-n3c(=O)c4c(n5ncc(Cc6ccccc6)c35)CN(C(=O)c3ccc(Br)c(Cl)c3)CC4)ccc12` [Compound 6, 5-benzyl-12-(4-bromo-3-chloro-benzoyl)-7-[3-(methylamino)-2,1-benzoxazol-6-yl]-2,3,7,12-tetrazatricyclo[7.4.0.0^2,6]trideca-1(9),3,5-trien-8-one], the EC50 was < 50 nM.

Same assay, conditions: Hepatitis B virus, 72 h, HBV DNA inhibition, 3 days incubation, 2% DMSO

First: C#CCc1cnn2c3c(c(=O)n(-c4ccc(C(=O)NC)cc4)c12)C[C@H](C)N(C(=O)c1ccc(Br)c(C(F)(F)F)c1)C3 (stereo in doubt) [Compound 78b, N-methyl-4-[rac-(11S)-12-[4-bromo-3-(trifluoromethyl)benzoyl]-11-methyl-8-oxo-5-prop-2-ynyl-2,3,7,12-tetrazatricyclo[7.4.0.0^2,6]trideca-1 (9),3,5-trien-7-yl]benzamide]
Second: CNC(=O)c1ccc(-n2c(=O)c3c(n4ncc(Cc5ccccc5)c24)CN(C(=O)c2ccc(Br)c(C(F)(F)F)c2)[C@@H](C)C3)cc1 (stereo in doubt) [Compound 38b, N-methyl-4-[rac-(11S)-5-benzyl-12-[4-bromo-3-(trifluoromethyl)benzoyl]-11-methyl-8-oxo-2,3,7,12-tetrazatricyclo[7.4.0.0^2,6]trideca-1(9),3,5-trien-7-yl]benzamide]
The EC50 of the first is higher: 50 to 500 nM for the first, < 50 nM for the second. The second is the more potent here.

First: C[C@H]1Cc2c(n3ncc(Cc4ccccc4)c3n(-c3ccc(-c4nnc(C(F)(F)F)[nH]4)cc3)c2=O)CN1C(=O)c1ccc(Br)c(C(F)(F)F)c1 (stereo in doubt) [Compound 74b, rac-(11S)-5-benzyl-12-[4-bromo-3-(trifluoromethyl)benzoyl]-11-methyl-7-[4-[5-(trifluoromethyl)-4H-1,2,4-triazol-3-yl]phenyl]-2,3,7,12-tetrazatricyclo[7.4.0.0^2,6]trideca-1(9),3,5-trien-8-one]
Second: C[C@@H]1Cc2c(n3ncc(Cc4ccccc4)c3n(-c3ccc(-c4nnc(C(F)(F)F)[nH]4)cc3)c2=O)CN1C(=O)c1ccc(Br)c(C(F)(F)F)c1 (stereo in doubt) [Compound 74a, rac-(11R)-5-benzyl-12-[4-bromo-3-(trifluoromethyl)benzoyl]-11-methyl-7-[4-[5-(trifluoromethyl)-4H-1,2,4-triazol-3-yl]phenyl]-2,3,7,12-tetrazatricyclo[7.4.0.0^2,6]trideca-1(9),3,5-trien-8-one]
The EC50 of the first is higher: 50 to 500 nM for the first, < 50 nM for the second. The second is the more potent here.

First: Cc1cnn(-c2ccc(-n3c(=O)c4c(n5ncc(Cc6ccccc6)c35)CN(C(=O)c3ccc(Br)c(C(F)(F)F)c3)[C@H](C)C4)cc2)n1 (stereo in doubt) [Compound 79a, rac-(11R)-5-benzyl-12-[4-bromo-3-(trifluoromethyl)benzoyl]-11-methyl-7-[4-(4-methyltriazol-2-yl)phenyl]-2,3,7,12-tetrazatricyclo[7.4.0.0^2,6]trideca-1(9),3,5-trien-8-one]
Second: Cc1cnn(-c2ccc(-n3c(=O)c4c(n5ncc(Cc6ccccc6)c35)CN(C(=O)c3ccc(Br)c(C(F)(F)F)c3)[C@@H](C)C4)cc2)n1 (stereo in doubt) [Compound 79b, rac-(11S)-5-benzyl-12-[4-bromo-3-(trifluoromethyl)benzoyl]-11-methyl-7-[4-(4-methyltriazol-2-yl)phenyl]-2,3,7,12-tetrazatricyclo[7.4.0.0^2,6]trideca-1(9),3,5-trien-8-one]
The EC50 of the first is lower: < 50 nM for the first, 50 to 500 nM for the second. The first is the more potent here.

Compared with `Cc1ccn(-c2ccc(-n3c(=O)c4c(n5ncc(CC(C)C)c35)CN(C(=O)c3ccc(Br)c(C(F)(F)F)c3)[C@@H](C)C4)cc2)n1` (stereo in doubt) [Compound 100b, rac-(11S)-12-[4-bromo-3-(trifluoromethyl)benzoyl]-5-isobutyl-11-methyl-7-[4-(3-methylpyrazol-1-yl)phenyl]-2,3,7,12-tetrazatricyclo[7.4.0.0^2,6]trideca-1(9),3,5-trien-8-one], `Cc1cnn(-c2ccc(-n3c(=O)c4c(n5ncc(CC(C)C)c35)CN(C(=O)c3ccc(Br)c(C(F)(F)F)c3)[C@H](C)C4)cc2)c1` (stereo in doubt) [Compound 98a, rac-(11R)-12-[4-bromo-3-(trifluoromethyl)benzoyl]-5-isobutyl-11-methyl-7-[4-(4-methylpyrazol-1-yl)phenyl]-2,3,7,12-tetrazatricyclo[7.4.0.0^2,6]trideca-1(9),3,5-trien-8-one] is lower in EC50: 500 to 5000 nM for the first, < 50 nM for the second.

First: CC(C)Cc1cnn2c3c(c(=O)n(-c4ccc(-c5nncn5C)cc4)c12)C[C@H](C)N(C(=O)c1ccc(Br)c(Cl)c1)C3 (stereo in doubt) [Compound 68b, rac-(11S)-12-(4-bromo-3-chloro-benzoyl)-5-isobutyl-11-methyl-7-[4-(4-methyl-1,2,4-triazol-3-yl)phenyl]-2,3,7,12-tetrazatricyclo[7.4.0.0^2,6]trideca-1(9),3,5-trien-8-one]
Second: Cc1nnc(-c2ccc(-n3c(=O)c4c(n5ncc(CC(C)C)c35)CN(C(=O)c3ccc(Br)c(Cl)c3)[C@H](C)C4)cc2)[nH]1 (stereo in doubt) [Compound 66a, rac-(11R)-12-(4-bromo-3-chloro-benzoyl)-5-isobutyl-11-methyl-7-[4-(5-methyl-4H-1,2,4-triazol-3-yl)phenyl]-2,3,7,12-tetrazatricyclo[7.4.0.0^2,6]trideca-1(9),3,5-trien-8-one]
The EC50 of the first is higher: 50 to 500 nM for the first, < 50 nM for the second.

First: Cc1nnc(-c2ccc(-n3c(=O)c4c(n5ncc(Cc6ccccc6)c35)CN(C(=O)c3ccc(Br)c(Cl)c3)[C@@H](C)C4)cc2)[nH]1 (stereo in doubt) [Compound 53b, rac-(11S)-5-benzyl-12-(4-bromo-3-chloro-benzoyl)-11-methyl-7-[4-(5-methyl-4H-1,2,4-triazol-3-yl)phenyl]-2,37,12-tetrazatricyclo[7.4.0.0^2,6]trideca-1(9),3,5-trien-8-one]
Second: Cc1nnc(-c2ccc(-n3c(=O)c4c(n5ncc(Cc6ccccc6)c35)CN(C(=O)c3ccc(Br)c(Cl)c3)CC4)cc2)n1C [Compound 31, 5-benzyl-12-(4-bromo-3-chloro-benzoyl)-7-[4-(4,5-dimethyl-1,2,4-triazol-3-yl)phenyl]-2,3,7,12-tetrazatricyclo[7.4.0.0^2,6]trideca-1(9),3,5-trien-8-one]
The EC50 of the first is higher: 50 to 500 nM for the first, < 50 nM for the second. The second is the more potent here.

`CNC(=O)c1ccc(-n2c(=O)c3c(n4ncc(CC5CC5)c24)CN(C(=O)c2ccc(Br)c(Cl)c2)[C@@H](C)C3)cc1` (stereo in doubt) [Compound 22b, N-methyl-4-[rac-(11S)-12-[4-bromo-3-chlorobenzoyl]-5-(cyclopropylmethyl)-11-methyl-8-oxo-2,3,7,12-tetrazatricyclo[7.4.0.0^2,6]trideca-1(9),3,5-trien-7-yl]benzamide] and `CNC(=O)c1ccc(-n2c(=O)c3c(n4ncc(CC5CCOC5)c24)CN(C(=O)c2ccc(Br)c(Cl)c2)CC3)cc1` (stereo not drawn) [Compound 17, 4-[12-(4-bromo-3-chloro-benzoyl)-8-oxo-5-(tetrahydrofuran-3-ylmethyl)-2,3,7,12-tetrazatricyclo[7.4.0.0^2,6]trideca-1(9),3,5-trien-7-yl]-N-methyl-benzamide] cannot be ordered by EC50: < 50 nM for the first, < 50 nM for the second.

Compared with `CNc1n[nH]c2cc(-n3c(=O)c4c(n5ncc(CC(C)C)c35)CN(C(=O)c3ccc(Cl)c(C(F)(F)F)c3)[C@@H](C)C4)ccc12` (stereo in doubt) [Compound 56b, rac-(11S)-12-[4-chloro-3-(trifluoromethyl)benzoyl]-5-isobutyl-11-methyl-7-[3-(methylamino)-1H-indazol-6-yl]-2,3,7,12-tetrazatricyclo[7.4.0.0^2,6]trideca-1(9),3,5-trien-8-one], `CNC(=O)c1cc(-n2c(=O)c3c(n4ncc(CC(C)C)c24)CN(C(=O)c2ccc(Br)c(C(F)(F)F)c2)[C@@H](C)C3)nn1C` (stereo in doubt) [Compound 77b, N,2-dimethyl-5-[rac-(11S)-12-[4-bromo-3-(trifluoromethyl)benzoyl]-5-isobutyl-11-methyl-8-oxo-2,3,7,12-tetrazatricyclo[7.4.0.0^2,6]trideca-1(9),3,5-trien-7-yl]pyrazole-3-carboxamide] is lower in EC50: 50 to 500 nM for the first, < 50 nM for the second.

First: C[C@H]1Cc2c(n3ncc(Cc4ccccc4)c3n(-c3ccc(-n4ccc(C(F)(F)F)n4)cc3)c2=O)CN1C(=O)c1ccc(Br)c(C(F)(F)F)c1 (stereo in doubt) [Compound 70b, rac-(11S)-5-benzyl-12-[4-bromo-3-(trifluoromethyl)benzoyl]-11-methyl-7-[4-[3-(trifluoromethyl)pyrazol-1-yl]phenyl]-2,3,7,12-tetrazatricyclo[7.4.0.0^2,6]trideca-1(9),3,5-trien-8-one]
Second: Cc1nnnn1-c1ccc(-n2c(=O)c3c(n4ncc(Cc5ccccc5)c24)CN(C(=O)c2ccc(Br)c(C(F)(F)F)c2)[C@@H](C)C3)cc1 (stereo in doubt) [Compound 46b, rac-(11S)-5-benzyl-12-[4-bromo-3-(trifluoromethyl)benzoyl]-11-methyl-7-[4-(5-methyltetrazol-1-yl)phenyl]-2,3,7,12-tetrazatricyclo[7.4.0.0^2,6]trideca-1(9),3,5-trien-8-one]
The EC50 of the first is higher: 500 to 5000 nM for the first, 50 to 500 nM for the second. The second is the more potent here.

First: Cc1nn[nH]c1-c1cc(-n2c(=O)c3c(n4ncc(Cc5ccccc5)c24)CN(C(=O)c2ccc(Br)c(C(F)(F)F)c2)[C@@H](C)C3)nn1C (stereo in doubt) [Compound 83b, rac-(11S)-5-benzyl-12-[4-bromo-3-(trifluoromethyl)benzoyl]-11-methyl-7-[1-methyl-5-(4-methyl-1H-triazol-5-yl)pyrazol-3-yl]-2,3,7,12-tetrazatricyclo[7.4.0.0^2,6]trideca-1(9),3,5-trien-8-one]
Second: CNC(=O)c1ccc(-n2c(=O)c3c(n4ncc(Cc5ccccc5)c24)CN(C(=O)c2ccc(Br)c(C(F)(F)F)c2)[C@H](C2CC2)C3)cc1 (stereo in doubt) [Compound 104b, N-methyl-4-[rac-(11S)-5-benzyl-12-[4-bromo-3-(trifluoromethyl)benzoyl]-11-cyclopropyl-8-oxo-2,3,7,12-tetrazatricyclo[7.4.0.0^2,6]trideca-1 (9),3,5-trien-7-yl]benzamide]
The EC50 of the first is higher: 50 to 500 nM for the first, < 50 nM for the second. The second is the more potent here.
